Experimental data reported in PubChem BioAssay AID248 (DTP/NCI, 2004).
“And” between values parts separate entries of the source, which are not always exact repeats. Equal values may be shown once. Toxic doses and inconclusive results are not listed. Cut-off read from the data, not from the text of the source: active = T/C of 150% or more; inactive = T/C below 125%.

Tested on: L1210 leukemia ip in BDF1 mice, survival T/C
Test: NCI In Vivo Anticancer Drug Screen. Data for tumor model L1210 Leukemia (intraperitoneal) in B6D2F1 (BDF1) mice
Conditions: higher = longer survival
In short: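 Tumor cells were implanted, animals were treated, and survival was followed. The result divides the treated measurement by the vehicle-control measurement.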

Measured: T/C

CC1CCC(NC(=O)N(CCCl)N=O)CC1 (stereo unspecified)
inactive: endpoint: mean survival time, dose: 0.2 mg/kg/injection, schedule: Q01DX001 (ip), vehicle: clinical formulation 119 % of control | endpoint: mean survival time, dose: 0.45 mg/kg/injection, schedule: Q01DX009 (ip), vehicle: saline with Tween-80 99 % of control and 103 % of control | endpoint: mean survival time, dose: 0.9 mg/kg/injection, schedule: Q01DX009 (ip), vehicle: saline with Tween-80 106 % of control and 118 % of control | endpoint: mean survival time, dose: 1.0 mg/kg/injection, schedule: Q01DX001 (ip), vehicle: other 112 % of control | endpoint: mean survival time, dose: 1.0 mg/kg/injection, schedule: Q04DX002 (ip), vehicle: saline with Tween-80 95 % of control and 100 % of control | endpoint: mean survival time, dose: 2.0 mg/kg/injection, schedule: Q01DX001 (ip), vehicle: other 118 % of control | endpoint: mean survival time, dose: 2.0 mg/kg/injection, schedule: Q01DX009 (ip), vehicle: saline 98 % of control | endpoint: mean survival time, dose: 2.0 mg/kg/injection, schedule: Q04DX002 (ip), vehicle: saline with Tween-80 101 % of control and 120 % of control | endpoint: mean survival time, dose: 2.5 mg/kg/injection, schedule: Q01DX Z (ip), vehicle: Klucel (hydroxypropylcellulose) (HPC) 115 % of control | endpoint: mean survival time, dose: 3.1 mg/kg/injection, schedule: Q07DX003 (ip), vehicle: Klucel (hydroxypropylcellulose) (HPC) 109 % of control | endpoint: mean survival time, dose: 4.0 mg/kg/injection, schedule: Q01DX009 (ip), vehicle: saline 104 % of control | endpoint: mean survival time, dose: 4.0 mg/kg/injection, schedule: Q04DX002 (ip), vehicle: saline with Tween-80 103 % of control and 107 % of control | endpoint: mean survival time, dose: 6.2 mg/kg/injection, schedule: Q07DX003 (ip), vehicle: Klucel (hydroxypropylcellulose) (HPC) 100 % of control | endpoint: mean survival time, dose: 8.0 mg/kg/injection, schedule: Q01DX009 (ip), vehicle: saline 117 % of control | endpoint: mean survival time, dose: 26.0 mg/kg/injection, schedule: Q01DX009 (ip), vehicle: saline with Tween-80 97 % of control and 101 % of control | endpoint: mean survival time, dose: 40.0 mg/kg/injection, schedule: Q04DX004 (ip), vehicle: saline with Tween-80 123 % of control | endpoint: mean survival time, dose: 50.0 mg/kg/injection, schedule: Q07DX003 (ip), vehicle: Klucel (hydroxypropylcellulose) (HPC) 121 % of control | endpoint: mean survival time, dose: 62.0 mg/kg/injection, schedule: Q01DX001 (ip), vehicle: other 109 % of control | endpoint: mean survival time, dose: 72.0 mg/kg/injection, schedule: Q01DX001 (ip), vehicle: other 113 % of control | endpoint: mean survival time, dose: 400.0 mg/kg/injection, schedule: Q01DX001 (ip), vehicle: saline with Tween-80 100 % of control | endpoint: median survival time, dose: 12.5 mg/kg/injection, schedule: Q01DX001 (ip), vehicle: saline with Tween-80 118 % of control and 121 % of control | endpoint: median survival time, dose: 15.0 mg/kg/injection, schedule: Q01DX009 (ip), vehicle: saline 96 % of control | endpoint: median survival time, dose: 100.0 mg/kg/injection, schedule: Q01DX001 (ip), vehicle: saline with Tween-80 106 % of control and 109 % of control
active: endpoint: mean survival time, dose: 0.1 mg/kg/injection, schedule: Q01DX001 (ip), vehicle: clinical formulation 211 % of control | endpoint: mean survival time, dose: 0.4 mg/kg/injection, schedule: Q01DX001 (ip), vehicle: clinical formulation 223 % of control | endpoint: mean survival time, dose: 5.0 mg/kg/injection, schedule: Q01DX Z (ip), vehicle: Klucel (hydroxypropylcellulose) (HPC) 205 % of control | endpoint: mean survival time, dose: 6.0 mg/kg/injection, schedule: Q01DX001 (ip), vehicle: other 154 % of control | endpoint: mean survival time, dose: 6.7 mg/kg/injection, schedule: Q04DX004 (ip), vehicle: saline with Tween-80 206 % of control | endpoint: mean survival time, dose: 8.0 mg/kg/injection, schedule: Q01DX001 (ip), vehicle: other 165 % of control | endpoint: mean survival time, dose: 10.0 mg/kg/injection, schedule: Q01DX001 (ip), vehicle: Klucel (hydroxypropylcellulose) (HPC) 445 % of control | endpoint: mean survival time, dose: 10.0 mg/kg/injection, schedule: Q01DX001 (ip), vehicle: clinical formulation 280 % of control | endpoint: mean survival time, dose: 10.0 mg/kg/injection, schedule: Q01DX001 (ip), vehicle: saline 328 % of control | endpoint: mean survival time, dose: 10.0 mg/kg/injection, schedule: Q01DX001 (iv), vehicle: clinical formulation 186 % of control and 205 % of control and 245 % of control | endpoint: mean survival time, dose: 10.0 mg/kg/injection, schedule: Q01DX Z (ip), vehicle: Klucel (hydroxypropylcellulose) (HPC) 240 % of control and 282 % of control | endpoint: mean survival time, dose: 10.0 mg/kg/injection, schedule: Q04DX004 (ip), vehicle: saline with Tween-80 273 % of control | endpoint: mean survival time, dose: 10.7 mg/kg/injection, schedule: Q01DX001 (ip), vehicle: saline with Tween-80 181 % of control | endpoint: mean survival time, dose: 12.0 mg/kg/injection, schedule: Q01DX001 (ip), vehicle: other 213 % of control | endpoint: mean survival time, dose: 12.5 mg/kg/injection, schedule: Q01DX001 (ip), vehicle: other 241 % of control | endpoint: mean survival time, dose: 12.5 mg/kg/injection, schedule: Q01DX001 (ip), vehicle: saline 172 % of control | endpoint: mean survival time, dose: 12.5 mg/kg/injection, schedule: Q07DX003 (ip), vehicle: Klucel (hydroxypropylcellulose) (HPC) 294 % of control | endpoint: mean survival time, dose: 13.0 mg/kg/injection, schedule: Q01DX001 (ip), vehicle: other 196 % of control | endpoint: mean survival time, dose: 15.0 mg/kg/injection, schedule: Q01DX001 (ip), vehicle: clinical formulation 218 % of control | endpoint: mean survival time, dose: 15.0 mg/kg/injection, schedule: Q01DX001 (ip), vehicle: saline 238 % of control | endpoint: mean survival time, dose: 15.0 mg/kg/injection, schedule: Q01DX001 (iv), vehicle: clinical formulation 326 % of control | endpoint: mean survival time, dose: 15.0 mg/kg/injection, schedule: Q01DX001 (iv), vehicle: saline 154 % of control | endpoint: mean survival time, dose: 15.0 mg/kg/injection, schedule: Q04DX004 (ip), vehicle: saline with Tween-80 319 % of control | endpoint: mean survival time, dose: 16.0 mg/kg/injection, schedule: Q01DX001 (ip), vehicle: other 321 % of control | endpoint: mean survival time, dose: 18.0 mg/kg/injection, schedule: Q01DX001 (ip), vehicle: other 265 % of control | endpoint: mean survival time, dose: 20.0 mg/kg/injection, schedule: Q01DX001 (ip), vehicle: Klucel (hydroxypropylcellulose) (HPC) 442 % of control | endpoint: mean survival time, dose: 20.0 mg/kg/injection, schedule: Q01DX001 (iv), vehicle: Klucel (hydroxypropylcellulose) (HPC) 332 % of control | endpoint: mean survival time, dose: 20.0 mg/kg/injection, schedule: Q01DX001 (iv), vehicle: clinical formulation 371 % of control | endpoint: mean survival time, dose: 20.0 mg/kg/injection, schedule: Q01DX Z (ip), vehicle: Klucel (hydroxypropylcellulose) (HPC) 166 % of control | endpoint: mean survival time, dose: 20.0 mg/kg/injection, schedule: Q04DX004 (ip), vehicle: saline with Tween-80 290 % of control | endpoint: mean survival time, dose: 22.0 mg/kg/injection, schedule: Q01DX001 (ip), vehicle: clinical formulation 255 % of control | endpoint: mean survival time, dose: 22.0 mg/kg/injection, schedule: Q01DX001 (ip), vehicle: saline 326 % of control | endpoint: mean survival time, dose: 22.0 mg/kg/injection, schedule: Q01DX001 (iv), vehicle: clinical formulation 250 % of control | endpoint: mean survival time, dose: 22.0 mg/kg/injection, schedule: Q01DX001 (iv), vehicle: saline 202 % of control | endpoint: mean survival time, dose: 24.0 mg/kg/injection, schedule: Q01DX001 (ip), vehicle: other 252 % of control | endpoint: mean survival time, dose: 24.0 mg/kg/injection, schedule: Q01DX001 (ip), vehicle: saline with Tween-80 436 % of control | endpoint: mean survival time, dose: 24.0 mg/kg/injection, schedule: Q01DX001 (oral), vehicle: other 364 % of control | endpoint: mean survival time, dose: 25.0 mg/kg/injection, schedule: Q01DX001 (ip), vehicle: other 300 % of control | endpoint: mean survival time, dose: 25.0 mg/kg/injection, schedule: Q01DX001 (ip), vehicle: saline 382 % of control | endpoint: mean survival time, dose: 25.0 mg/kg/injection, schedule: Q07DX003 (ip), vehicle: Klucel (hydroxypropylcellulose) (HPC) 214 % of control | endpoint: mean survival time, dose: 27.0 mg/kg/injection, schedule: Q01DX001 (ip), vehicle: other 283 % of control | endpoint: mean survival time, dose: 30.0 mg/kg/injection, schedule: Q01DX001 (ip), vehicle: other 321 % of control | endpoint: mean survival time, dose: 31.0 mg/kg/injection, schedule: Q01DX001 (ip), vehicle: other 357 % of control | endpoint: mean survival time, dose: 33.0 mg/kg/injection, schedule: Q01DX001 (ip), vehicle: saline 326 % of control | endpoint: mean survival time, dose: 33.0 mg/kg/injection, schedule: Q01DX001 (iv), vehicle: saline 297 % of control | endpoint: mean survival time, dose: 40.0 mg/kg/injection, schedule: Q01DX001 (ip), vehicle: Klucel (hydroxypropylcellulose) (HPC) 180 % of control | endpoint: mean survival time, dose: 40.0 mg/kg/injection, schedule: Q01DX001 (ip), vehicle: clinical formulation 404 % of control | endpoint: mean survival time, dose: 40.0 mg/kg/injection, schedule: Q01DX001 (iv), vehicle: Klucel (hydroxypropylcellulose) (HPC) 395 % of control | endpoint: mean survival time, dose: 40.0 mg/kg/injection, schedule: Q01DX001 (iv), vehicle: clinical formulation 188 % of control and 251 % of control | endpoint: mean survival time, dose: 45.0 mg/kg/injection, schedule: Q01DX001 (ip), vehicle: other 304 % of control | endpoint: mean survival time, dose: 50.0 mg/kg/injection, schedule: Q01DX001 (ip), vehicle: other 226 % of control | endpoint: mean survival time, dose: 50.0 mg/kg/injection, schedule: Q01DX001 (ip), vehicle: saline 326 % of control and 360 % of control | endpoint: mean survival time, dose: 64.0 mg/kg/injection, schedule: Q04DX002 (ip), vehicle: saline with Tween-80 294 % of control and 313 % of control | endpoint: mean survival time, dose: 67.0 mg/kg/injection, schedule: Q01DX001 (ip), vehicle: other 230 % of control | endpoint: mean survival time, dose: 75.0 mg/kg/injection, schedule: Q01DX001 (ip), vehicle: saline 219 % of control and 296 % of control | endpoint: mean survival time, dose: 91.0 mg/kg/injection, schedule: Q01DX001 (oral), vehicle: other 280 % of control and 306 % of control and 388 % of control | endpoint: median survival time, dose: 1.8 mg/kg/injection, schedule: Q01DX009 (ip), vehicle: saline 318 % of control | endpoint: median survival time, dose: 7.5 mg/kg/injection, schedule: Q01DX009 (ip), vehicle: saline 211 % of control
